{"source": "ChEMBL document CHEMBL3393018", "about": "“Multimodal biopanning of T7 phage-displayed peptides reveals angiomotin as a potential receptor of the anti-angiogenic macrolide Roxithromycin” (Eur J Med Chem, 2015)", "key": {"[1]": {"system": "HUVEC", "test": "Inhibition of cell proliferation of HUVEC at 12.5 to 200 uM after 72 hrs by MTS assay", "type": "functional, cell-based", "settings": "Homo sapiens"}, "[2]": {"target": "T1, Angiomotin (Homo sapiens) (UniProt Q4VCS5)", "T1 sequence (whole entry)": "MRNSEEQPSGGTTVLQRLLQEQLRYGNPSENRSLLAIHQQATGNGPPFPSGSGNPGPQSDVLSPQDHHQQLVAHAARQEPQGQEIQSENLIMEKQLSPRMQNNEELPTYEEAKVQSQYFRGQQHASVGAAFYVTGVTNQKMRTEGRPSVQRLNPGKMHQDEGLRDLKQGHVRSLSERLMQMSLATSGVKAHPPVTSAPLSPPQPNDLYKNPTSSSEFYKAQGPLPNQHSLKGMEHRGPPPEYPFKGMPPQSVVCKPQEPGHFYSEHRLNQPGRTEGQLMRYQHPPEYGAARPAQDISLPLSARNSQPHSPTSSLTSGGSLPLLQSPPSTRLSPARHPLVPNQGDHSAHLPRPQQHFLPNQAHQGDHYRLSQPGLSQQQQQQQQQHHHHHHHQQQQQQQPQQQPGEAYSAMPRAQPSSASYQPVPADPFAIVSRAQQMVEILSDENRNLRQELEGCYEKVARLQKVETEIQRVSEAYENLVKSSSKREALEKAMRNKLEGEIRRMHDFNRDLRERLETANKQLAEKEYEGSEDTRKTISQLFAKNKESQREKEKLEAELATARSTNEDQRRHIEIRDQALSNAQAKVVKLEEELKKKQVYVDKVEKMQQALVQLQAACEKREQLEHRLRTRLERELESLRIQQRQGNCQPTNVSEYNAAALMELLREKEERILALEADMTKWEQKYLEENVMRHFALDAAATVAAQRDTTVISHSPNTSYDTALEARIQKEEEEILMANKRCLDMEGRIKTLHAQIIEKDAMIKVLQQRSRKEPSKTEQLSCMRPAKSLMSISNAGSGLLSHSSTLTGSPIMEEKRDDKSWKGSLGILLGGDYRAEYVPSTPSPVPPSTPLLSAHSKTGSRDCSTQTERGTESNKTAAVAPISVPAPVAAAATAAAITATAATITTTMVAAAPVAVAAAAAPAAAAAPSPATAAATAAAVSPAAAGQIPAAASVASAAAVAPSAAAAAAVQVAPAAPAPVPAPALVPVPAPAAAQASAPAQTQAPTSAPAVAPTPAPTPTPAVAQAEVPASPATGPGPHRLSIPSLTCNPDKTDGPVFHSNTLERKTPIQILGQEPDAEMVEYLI", "test": "Binding affinity to recombinant GST-tagged Amot (H343 to I675 residues) (unknown origin) expressed in Escherichia coli at 25 uM using Amot immobilized on gold electrode of QCM sensor chip by […] biosensor-based assay"}, "[3]": {"target": "T1, Angiomotin (Homo sapiens)", "test": "Binding affinity to recombinant GST-tagged Amot (H343 to I675 residues) (unknown origin) expressed in Escherichia coli at 50 uM using Amot immobilized on gold electrode of QCM sensor chip by […] biosensor-based assay"}}, "note": "Active and inactive are the calls of the source. The rule behind the calls is not given here."}
{"smiles": "CC[C@H]1OC(=O)[C@H](C)[C@@H](O[C@H]2C[C@@](C)(OC)[C@@H](O)[C@H](C)O2)[C@H](C)[C@@H](O[C@@H]2O[C@H](C)C[C@H](N(C)C)[C@H]2O)[C@](C)(O)C[C@@H](C)/C(=N\\OCOCCOC)[C@H](C)[C@@H](O)[C@]1(C)O", "note": "[ROXITHROMYCIN]", "values": [{"measurement": "IC50", "setting": "[1]", "result": 100, "unit": "µM"}, {"measurement": "Activity", "setting": "[2]", "result": "Active"}, {"measurement": "Activity", "setting": "[3]", "result": "Active"}]}
